Source: US9120804B2, “8-substituted 2-amino-[1,2,4] triazolo [1, 5-A] pyrazines as Syk tryrosine kinase inhibitors and GCN2 serin kinase inhibitors” (Merck Patent GmbH, priority 2012, dated 2015)

What follows are molecules tested against T1, SYK (Homo sapiens, UniProt P43405) (assay: SYK flash plate assay (enzyme assay)).
T1 construct: 2.5 nM SYK, 400 nM Biotin-Aha-Aha-KEDPDYEWPSAKK
Assay type: biochemical
Experimental: The kinase assay is performed either as 384-well Flashplate assay (for e.g. Topcount measurement) or as 384-well Image-Flashplate assay (for LEADseeker measurement).
2.5 nM SYK, 400 nM Biotin-Aha-Aha-KEDPDYEWPSAKK
and 10 μM ATP (spiked with 0.3 μCi 33P-ATP/well) are incubated in a total volume of 50 μl (60 mM Hepes, 10 mM MgCl2, 1.2 mM Dithiothreitol, 0.02% Brij35, 0.1% BSA, pH 7.5) with or without test compound for 1 hours at 30° C. The reaction is stopped with 25 μl 200 mM EDTA. After 30 Min at 30° C. the liquid is removed and each well washed thrice with 100 μl 0.9% sodium chloride solution. Non-specific reaction is determined in presence of […] Staurosporine. Radioactivity is measured with Topcount (when using Flashplates) or with LEADseeker (when using Image-Flashplates) respectively. Results (e.g. IC50-values) are calculated with program tools provided by the IT-department (e.g. Symyx Assay Explorer, Genedata Screener). In Vivo Assays CIA

Q: With `CC1(C)C(=O)Nc2cc(Nc3nc4c(N5C[C@H](O)C[C@@H]5c5ccccc5)nccn4n3)ccc21` (racemic) [C143, 6-[8-(4-hydroxy-2-phenyl-pyrrolidin-1-yl)-[1,2,4]triazolo[1,5-a]pyrazin-2-ylamino]-3,3-dimethyl-1,3-dihydro-indol-2-one] as the molecule, how does the IC50 read?
A: Its IC50 is 0.1 to 0.3 µM.

Q: With `CC1(C)C(=O)Nc2cc(Nc3nc4c(N5C[C@@H](CO)C[C@H]5c5ccccc5)nccn4n3)ccc21` (single isomer, unassigned) [E95, 6-[8-((cis1)-4-hydroxymethyl-2-phenyl-pyrrolidin-1-yl)-[1,2,4]triazolo[1,5-a]pyrazin-2-ylamino]-3,3-dimethyl-1,3-dihydro-indol-2-one] as the molecule, how does the IC50 read?
A: Its IC50 is under 0.1 µM.

Q: How did the IC50 turn out when `CC1(C)C(=O)Nc2cc(Nc3nc4c(N5C[C@@H](CO)C[C@@H]5c5ccccc5)nccn4n3)ccc21` (single isomer, unassigned) [E97, 6-[8-((trans1)-4-hydroxymethyl-2-phenyl-pyrrolidin-1-yl)-[1,2,4]triazolo[1,5-a]pyrazin-2-ylamino]-3,3-dimethyl-1,3-dihydro-indol-2-one] was run?
A: The IC50 was 0.3 to 3 µM.

Q: With `CC1(C)C(=O)Nc2cc(Nc3nc4c(N5C[C@H](CO)C[C@H]5c5ccccc5)nccn4n3)ccc21` (single isomer, unassigned) [E98, 6-[8-((trans2)-4-hydroxymethyl-2-phenyl-pyrrolidin-1-yl)-[1,2,4]triazolo[1,5-a]pyrazin-2-ylamino]-3,3-dimethyl-1,3-dihydro-indol-2-one] as the molecule, how does the IC50 read?
A: The IC50 was 0.1 to 0.3 µM.

Q: `COc1ccc(Nc2nc3c(-c4ccccc4-c4ccccc4)nccn3n2)cc1` [C1, (8-Biphenyl-2-yl-[1,2,4]triazolo[1,5-a]pyrazin-2-yl)-(4-methoxy-phenyl)-amine] was tested. Which IC50 did it give?
A: Its IC50 is 3 to 50 µM.

Q: How did the IC50 turn out when `COc1ccc(OC)c(Nc2nc3c(-c4ccccc4-c4ccccc4)nccn3n2)c1` [C3, (8-Biphenyl-2-yl-[1,2,4]triazolo[1,5-a]pyrazin-2-yl)-(2,5-dimethoxy-phenyl)-amine] was run?
A: Its IC50 is 0.3 to 3 µM.

Q: For `COc1ccc(Nc2nc3c(-c4ccccc4-c4ccccc4)nccn3n2)cc1OC` [C5, (8-Biphenyl-2-yl-[1,2,4]triazolo[1,5-a]pyrazin-2-yl)-(3,4-dimethoxy-phenyl)-amine], which IC50 is on record?
A: The IC50 was 0.1 to 0.3 µM.

Q: For `COc1cccc(Nc2nc3c(-c4ccccc4-c4ccccc4)nccn3n2)c1` [C7, (8-Biphenyl-2-yl-[1,2,4]triazolo[1,5-a]pyrazin-2-yl)-(3-methoxy-phenyl)-amine], which IC50 is on record?
A: The IC50 was 0.3 to 3 µM.

Q: `c1ccc(-c2ccccc2-c2nccn3nc(Nc4ccc5cn[nH]c5c4)nc23)cc1` [C11, (8-Biphenyl-2-yl-[1,2,4]triazolo[1,5-a]pyrazin-2-yl)-(1H-indazol-6-yl)-amine] was tested. Which IC50 did it give?
A: The IC50 was 0.3 to 3 µM.

Q: `NS(=O)(=O)c1cccc(Nc2nc3c(-c4ccccc4-c4ccccc4)nccn3n2)c1` [C13, 3-(8-Biphenyl-2-yl-[1,2,4]triazolo[1,5-a]pyrazin-2-ylamino)-benzenesulfonamide] was tested. Which IC50 did it give?
A: Its IC50 is 3 to 50 µM.

Q: For `NS(=O)(=O)c1ccc(Nc2nc3c(-c4ccccc4-c4ccccc4)nccn3n2)cc1` [C15, 4-(8-Biphenyl-2-yl-[1,2,4]triazolo[1,5-a]pyrazin-2-ylamino)-benzenesulfonamide], which IC50 is on record?
A: The IC50 was 3 to 50 µM.

Q: For `c1ccc(-c2ccccc2-c2nccn3nc(Nc4cccc(N5CCOCC5)c4)nc23)cc1` [C17, (8-Biphenyl-2-yl-[1,2,4]triazolo[1,5-a]pyrazin-2-yl)-(3-morpholin-4-yl-phenyl)-amine], which IC50 is on record?
A: Its IC50 is 0.3 to 3 µM.

Q: With `Cn1ncc2ccc(Nc3nc4c(-c5ccccc5-c5ccccc5)nccn4n3)cc21` [C20, (8-Biphenyl-2-yl-[1,2,4]triazolo[1,5-a]pyrazin-2-yl)-(1-methyl-1H-indazol-6-yl)-amine] as the molecule, how does the IC50 read?
A: The IC50 was 0.3 to 3 µM.

Q: `COc1ccccc1Nc1nc2c(-c3ccccc3-c3ccccc3)nccn2n1` [C24, (8-Biphenyl-2-yl-[1,2,4]triazolo[1,5-a]pyrazin-2-yl)-(2-methoxy-phenyl)-amine] was tested. Which IC50 did it give?
A: Its IC50 is 3 to 50 µM.

Q: For `C[S+]([O-])c1ccc(Nc2nc3c(-c4ccccc4-c4ccccc4)nccn3n2)cc1` (stereo not shown) [C31, (8-Biphenyl-2-yl-[1,2,4]triazolo[1,5-a]pyrazin-2-yl)-(4-methanesulfinyl-phenyl)-amine], which IC50 is on record?
A: Its IC50 is 3 to 50 µM.

Q: How did the IC50 turn out when `N#Cc1ccc(Nc2nc3c(-c4ccccc4-c4ccccc4)nccn3n2)cc1O` [C35, 4-(8-Biphenyl-2-yl-[1,2,4]triazolo[1,5-a]pyrazin-2-ylamino)-2-hydroxybenzonitrile] was run?
A: Its IC50 is 3 to 50 µM.

Q: `CS(=O)(=O)Nc1ccc(-c2nccn3nc(Nc4ccc(N5CCOCC5)cc4)nc23)cc1` [C42, N-{4-[2-(4-morpholin-4-yl-phenylamino)-[1,2,4]triazolo[1,5-a]pyrazin-8-yl]-phenyl}-methanesulfonamide] was tested. Which IC50 did it give?
A: Its IC50 is 0.3 to 3 µM.

Q: `COc1cc(Nc2nc3c(N4CCN(C)CC4)nccn3n2)cc(OC)c1` [C46, (3,5-dimethoxy-phenyl)-[8-(4-methyl-piperazin-1-yl)-[1,2,4]triazolo[1,5-a]pyrazin-2-yl]-amine] was tested. Which IC50 did it give?
A: Its IC50 is 0.3 to 3 µM.

Q: With `COc1cc(Nc2nc3c(N4CCC(NS(C)(=O)=O)CC4)nccn3n2)cc(OC)c1` [C53, N-{1-[2-(3,5-dimethoxy-phenylamino)-[1,2,4]triazolo[1,5-a]pyrazin-8-yl]-piperidin-4-yl}-methanesulfonamide] as the molecule, how does the IC50 read?
A: Its IC50 is 0.3 to 3 µM.

Q: How did the IC50 turn out when `COc1cc(Nc2nc3c(N4CCNC(c5ccccc5)C4)nccn3n2)cc(OC)c1` (stereo not shown) [C54, (3,5-dimethoxy-phenyl)-[8-(3-phenyl-piperazin-1-yl)-[1,2,4]triazolo[1,5-a]pyrazin-2-yl]-amine] was run?
A: Its IC50 is 3 to 50 µM.

Q: Which IC50 does the source give for `Cn1cc(-c2nccn3nc(Nc4ccc(C(C)(C)C)cc4)nc23)cn1` [C62, (4-tert-butyl-phenyl)-[8-(1-methyl-1H-pyrazol-4-yl)-[1,2,4]triazolo[1,5-a]pyrazin-2-yl]-amine] here?
A: The IC50 was 0.1 to 0.3 µM.

Q: `Cc1nn(C)c(C)c1-c1nccn2nc(Nc3ccc4c(c3)NC(=O)C4(C)C)nc12` [C68, 3,3-dimethyl-6-[8-(1,3,5-trimethyl-1H-pyrazol-4-yl)-[1,2,4]triazolo[1,5-a]pyrazin-2-ylamino]-1,3-dihydro-indol-2-one] was tested. Which IC50 did it give?
A: Its IC50 is 0.3 to 3 µM.

Q: For `CC1(C)C(=O)Nc2cc(Nc3nc4c(N[C@H]5CC[C@@H](O)CC5)nccn4n3)ccc21` [C75, cis-6-[8-(4-hydroxy-cyclohexylamino)-[1,2,4]triazolo[1,5-a]pyrazin-2-ylamino]-3,3-dimethyl-1,3-dihydro-indol-2-one], which IC50 is on record?
A: The IC50 was under 0.1 µM.

Q: How did the IC50 turn out when `CC1(C)C(=O)Nc2cc(Nc3nc4c(N[C@H]5CC[C@H](O)CC5)nccn4n3)ccc21` [C76, trans-6-[8-(4-hydroxy-cyclohexylamino)-[1,2,4]triazolo[1,5-a]pyrazin-2-ylamino]-3,3-dimethyl-1,3-dihydro-indol-2-one] was run?
A: Its IC50 is 0.3 to 3 µM.

Q: How did the IC50 turn out when `CC1(C)C(=O)Nc2cc(Nc3nc4c(NC5CCCNC5)nccn4n3)ccc21` (stereo not shown) [C77, 3,3-dimethyl-6-[8-(piperidin-3-ylamino)-[1,2,4]triazolo[1,5-a]pyrazin-2-ylamino]-1,3-dihydro-indol-2-one] was run?
A: Its IC50 is under 0.1 µM.

Q: With `CC1(C)C(=O)Nc2cc(Nc3nc4c(N5CC(O)CC5c5ccccc5)nccn4n3)ccc21` (stereo not shown) [C79, 6-[8-(4-hydroxy-2-phenyl-pyrrolidin-1-yl)-[1,2,4]triazolo[1,5-a]pyrazin-2-ylamino]-3,3-dimethyl-1,3-dihydro-indol-2-one] as the molecule, how does the IC50 read?
A: Its IC50 is 0.3 to 3 µM.

Q: How did the IC50 turn out when `CC1(C)C(=O)Nc2cc(Nc3nc4c(N[C@@H]5CCCNC5)nccn4n3)ccc21` [C87, 3,3-dimethyl-6-[8-((R)-piperidin-3-ylamino)-[1,2,4]triazolo[1,5-a]pyrazin-2-ylamino]-1,3-dihydro-indol-2-one] was run?
A: Its IC50 is 0.1 to 0.3 µM.

Q: For `CC1(C)C(=O)Nc2cc(Nc3nc4c(N5C[C@@H]6C[C@H]5CN6)nccn4n3)ccc21` [C89, 6-[(1S,4S)-8-(2,5-diaza-bicyclo[2.2.1]hept-2-yl)-[1,2,4]triazolo[1,5-a]pyrazin-2-ylamino]-3,3-dimethyl-1,3-dihydro-indol-2-one], which IC50 is on record?
A: The IC50 was 0.3 to 3 µM.

Q: `CC1(C)C(=O)Nc2cc(Nc3nc4c(-c5cccc6[nH]ncc56)nccn4n3)ccc21` [C90, 6-[8-(1H-indazol-4-yl)-[1,2,4]triazolo[1,5-a]pyrazin-2-ylamino]-3,3-dimethyl-1,3-dihydro-indol-2-one] was tested. Which IC50 did it give?
A: Its IC50 is under 0.1 µM.

Q: How did the IC50 turn out when `CC1(C)C(=O)Nc2cc(Nc3nc4c(N5CCCC6(COC6)C5)nccn4n3)ccc21` [C92, 3,3-dimethyl-6-[8-(2-oxa-6-aza-spiro[3.5]non-6-yl)-[1,2,4]triazolo[1,5-a]pyrazin-2-ylamino]-1,3-dihydro-indol-2-one] was run?
A: Its IC50 is under 0.1 µM.

Q: For `CC1(C)C(=O)Nc2cc(Nc3nc4c(N(CCO)C5CCNCC5)nccn4n3)ccc21` [C93, 6-{8-[(2-hydroxy-ethyl)-piperidin-4-yl-amino]-[1,2,4]triazolo[1,5-a]pyrazin-2-ylamino}-3,3-dimethyl-1,3-dihydro-indol-2-one], which IC50 is on record?
A: Its IC50 is 0.3 to 3 µM.

Q: For `CC1(C)C(=O)Nc2cc(Nc3nc4c(N5C6CCC5COC6)nccn4n3)ccc21` [C96, 3,3-dimethyl-6-[8-(3-oxa-8-aza-bicyclo[3.2.1 l]oct-8-yl)-[1,2,4]triazolo[1,5-a]pyrazin-2-ylamino]-1,3-dihydro-indol-2-one], which IC50 is on record?
A: The IC50 was 0.1 to 0.3 µM.

Q: How did the IC50 turn out when `CC1(C)C(=O)Nc2cc(Nc3nc4c(N[C@H]5C[C@H](N)C5)nccn4n3)ccc21` [C97, 6-[8-(trans-3-amino-cyclobutylamino)-[1,2,4]triazolo[1,5-a]pyrazin-2-ylamino]-3,3-dimethyl-1,3-dihydro-indol-2-one] was run?
A: The IC50 was 0.3 to 3 µM.

Q: How did the IC50 turn out when `CC1(C)C(=O)Nc2cc(Nc3nc4c(N[C@H]5C[C@@H](N)C5)nccn4n3)ccc21` [C98, 6-[8-(cis-3-amino-cyclobutylamino)-[1,2,4]triazolo[1,5-a]pyrazin-2-ylamino]-3,3-dimethyl-1,3-dihydro-indol-2-one] was run?
A: Its IC50 is under 0.1 µM.
